Measured values reported in patent US20080200473A1, “Imidazo [1,2-a]Pyridine Compounds, Compositions, Uses and Methods Thereto” (Ferrer Internacional, S.A., priority 2004, published 2008).

Experiments:
[1] = test system: α2-GABAA receptor; experiment: Ligand-binding assay, competitive with radiolabeled flumazenil, spinal cord membranes; conditions: Affinity for α2-GABAA receptor, rat spinal cord membranes, radiolabeled flumazenil 1 nM; for % Inhibition 10^−5M: 10^-5M test compound; for % Inhibition 10^−7M: 10^-7M test compound
[2] = test system: mice; experiment: In vivo predictive sedation-hypnosis test (inhibition of traveled distance); parameters: species or system mouse; conditions: male CD1 mice; single equimolecular intraperitoneal doses; traveled distance over 30 min after dosing (first 5 min discarded) versus control
[3] = test system: α1-GABAA receptor; experiment: Ligand-binding assay, competitive with radiolabeled flumazenil, cerebellum membranes; conditions: Affinity for α1-GABAA receptor, rat cerebellum membranes, radiolabeled flumazenil 1 nM; for % Inhibition 10^−5M: 10^-5M test compound; for % Inhibition 10^−7M: 10^-7M test compound

Structure (SMILES)	% Inhibition 10^−5M [1] [%]	% Inhibition 10^−7M [1] [%]	% Inhibition Motor Activity [2] [%]	% Inhibition 10^−5M [3] [%]	% Inhibition 10^−7M [3] [%]
Cc1ccc(-c2nc3ccc(C)cn3c2CNC(=O)c2cnccn2)cc1 [Example 89, Pyrazine-2-carboxylic acid (6-methyl-2-p-tolyl-imidazo[1,2-a]pyridin-3-ylmethyl)-amide]	98.2	54.5	74.65	100.3	88.2
Cc1ccc(-c2nc3ccc(C)cn3c2CNC(=O)c2c(C)noc2C)cc1 [Example 90, 3,5-Dimethyl-isoxazole-4-carboxylic acid (6-methyl-2-p-tolyl-imidazo[1,2-a]pyridin-3-ylmethyl)-amide]	31.8	0.0	82.12	84.5	0.0
Cc1ccc(-c2nc3ccc(C)cn3c2CN(C)C(=O)c2cscn2)cc1 [Example 94, Thiazole-4-carboxylic acid methyl-(6-methyl-2-p-tolyl-imidazo[1,2-a]pyridin-3-ylmethyl)-amide]	94.5	33.2	89.33	99.5	78.5
Cc1ccc(-c2nc3ccc(C)cn3c2CC(=O)N(C)C)cc1 [Zolpidem, reference compound]	78.2	20.1	90.80	94.4	73.6
